From patent US12030876B2, “Aryl hydrocarbon receptor (AHR) agonists and uses thereof” (Ikena Oncology, Inc., priority 2019, dated 2024)

What was measured:
AHR [1] = target: T1, AHR (Homo sapiens, UniProt P35869); assay: DRE-Luciferase Reporter Assay, HepG2 (agonist); type: cell-based; settings: HepG2, Table 3; read-out: DRE-Luc HepG2 - Agonist: Average EC50
T1 construct: endogenous in cells; host or cells: HepG2 (human), transfected with a DRE-luciferase reporter only
T1 sequence (P35869 11-848): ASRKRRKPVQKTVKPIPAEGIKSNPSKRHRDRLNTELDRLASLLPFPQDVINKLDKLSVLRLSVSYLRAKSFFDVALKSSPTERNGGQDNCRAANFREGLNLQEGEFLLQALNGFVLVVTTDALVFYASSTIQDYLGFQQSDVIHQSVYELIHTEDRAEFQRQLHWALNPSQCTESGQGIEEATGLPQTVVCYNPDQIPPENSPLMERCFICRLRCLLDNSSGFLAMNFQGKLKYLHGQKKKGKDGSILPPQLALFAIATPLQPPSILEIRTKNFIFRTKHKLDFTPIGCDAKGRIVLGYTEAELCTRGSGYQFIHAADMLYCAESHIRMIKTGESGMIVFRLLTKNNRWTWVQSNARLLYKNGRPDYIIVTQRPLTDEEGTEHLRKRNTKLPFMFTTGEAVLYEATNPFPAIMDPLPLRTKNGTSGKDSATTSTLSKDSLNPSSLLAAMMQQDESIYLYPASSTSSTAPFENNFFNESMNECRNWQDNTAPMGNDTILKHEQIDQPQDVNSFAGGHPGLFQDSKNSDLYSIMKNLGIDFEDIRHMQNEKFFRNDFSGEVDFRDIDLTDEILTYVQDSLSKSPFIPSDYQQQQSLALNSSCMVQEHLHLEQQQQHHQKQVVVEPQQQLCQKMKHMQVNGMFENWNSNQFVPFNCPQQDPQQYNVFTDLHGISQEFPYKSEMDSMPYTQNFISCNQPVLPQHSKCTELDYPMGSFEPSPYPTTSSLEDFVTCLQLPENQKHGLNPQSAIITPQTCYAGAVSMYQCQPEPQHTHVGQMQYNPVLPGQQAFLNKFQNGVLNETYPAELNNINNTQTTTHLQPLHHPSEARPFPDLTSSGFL
In short: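 Cells carrying a stably or transiently transfected DRE-luciferase reporter, plated overnight at 37 C, then given agonist for 6, 16 or 24 h before lysis and luciferase read-out. Signal scaled between no ligand (minimum) and activating ligand alone, e.g. TCDD (maximum); EC50 = concentration giving half-maximal luciferase activity.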

AHR [2] = target: T2, AHR (Mus musculus, UniProt P30561); assay: DRE-Luciferase Reporter Assay, Hepa1.6 (agonist); type: cell-based, murine; settings: Hepa1.6, Table 3; read-out: DRE-Luc Hepa1.6 - Agonist: Average EC50
T2 sequence (P30561 1-848 F348L/P471L): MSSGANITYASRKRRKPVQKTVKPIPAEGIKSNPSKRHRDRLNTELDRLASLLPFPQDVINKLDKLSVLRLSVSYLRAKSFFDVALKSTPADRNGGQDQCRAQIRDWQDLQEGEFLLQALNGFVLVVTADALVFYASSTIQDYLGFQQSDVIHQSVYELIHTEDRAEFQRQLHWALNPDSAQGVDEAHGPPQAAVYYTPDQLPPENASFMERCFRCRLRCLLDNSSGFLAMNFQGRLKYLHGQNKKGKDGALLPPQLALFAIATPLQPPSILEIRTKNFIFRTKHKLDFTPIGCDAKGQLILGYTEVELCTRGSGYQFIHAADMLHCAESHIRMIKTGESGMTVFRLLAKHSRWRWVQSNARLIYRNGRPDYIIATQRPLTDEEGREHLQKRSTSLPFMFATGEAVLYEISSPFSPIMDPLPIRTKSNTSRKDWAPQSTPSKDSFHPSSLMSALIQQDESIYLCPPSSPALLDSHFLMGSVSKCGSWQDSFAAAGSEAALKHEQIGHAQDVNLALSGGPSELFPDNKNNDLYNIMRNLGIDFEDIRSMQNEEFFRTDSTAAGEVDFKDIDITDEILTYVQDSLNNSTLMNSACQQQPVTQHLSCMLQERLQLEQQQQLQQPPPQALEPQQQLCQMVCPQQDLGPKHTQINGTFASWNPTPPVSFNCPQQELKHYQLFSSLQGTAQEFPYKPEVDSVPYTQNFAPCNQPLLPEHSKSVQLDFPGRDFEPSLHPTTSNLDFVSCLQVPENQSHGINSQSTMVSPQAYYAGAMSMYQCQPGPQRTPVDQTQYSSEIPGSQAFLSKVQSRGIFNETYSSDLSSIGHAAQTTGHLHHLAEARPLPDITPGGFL
Procedure: DRE-Luciferase Reporter Assay
AHR binds to Dioxin Responsive Elements (DRE) upstream of genes that it activates. One measure of AHR activity is activation of a reporter gene, such as luciferase, downstream of one or multiple DRE elements. Luciferase activity reflects activation and inhibition of AHR in the cells expressing this reporter.
Murine Hepa1-6 or Hepa-1c1c7 or other murine cell line with a DRE-luciferase reporter either stably or transiently transfected are plated in media in plates (96-well, 384-well or other plates) and incubated overnight at 37 C in a CO2 incubator. Likewise, human HepG2 or other human cell line with a DRE-luciferase reporter either stably or transiently transfected are plated in media in plates (96-well, 384-well or other plates) and incubated overnight at 37 C in a CO2 incubator.
The next day, an AHR agonist compound is added. Cells are incubated for 6, 16 or 24 hours or another time point and then lysed for determination of luciferase activity as a read-out of the AHR activation. Luciferase can be measured with a commercial kit such as the Promega Luciferase kit or any kit or reagents that provide the luciferin substrate for measuring luciferase activity. The level of luciferase with only activating ligand (e.g. such as TCDD, kynurenine, ITE (2-(1H-indole-3-ylcarbonyl)-4-thiazolecarboxylic methyl ester), VAF347, BNF (beta-naphthoflavone), ICZ (6-formylindolo(3,2-b) carbazole or other AHR ligands) added is the maximum signal while the luciferase with no ligand is the minimum signal. EC50s can be determined as the concentration which activates half of the maximum luciferase activity.

| SMILES | EC50 (AHR [1]) | EC50 (AHR [2]) |
| --- | --- | --- |
| N#Cc1cccc(-c2csc(Nc3cncc(C(F)(F)F)c3)n2)c1 [I-97] | < 10 nM | 10 to 100 nM |
| N#Cc1cc(-c2csc(Nc3cccc(C(F)(F)F)c3)n2)c[n+]([O-])c1 [I-100] | < 10 nM | > 1000 nM |
| [O-][n+]1cc(Cl)cc(-c2csc(Nc3cccc(C(F)(F)F)c3)n2)c1 [I-107] | < 10 nM | > 1000 nM |
| N#Cc1cccc(-c2nsc(Nc3cccc(C(F)(F)F)c3)n2)c1 [I-109] | < 10 nM | > 1000 nM |
| N#Cc1cccc(-c2cnc(Nc3cccc(C(F)(F)F)c3)o2)c1 [I-112] | < 10 nM | > 1000 nM |
| [O-][n+]1cccc(-c2nsc(Nc3cccc(C(F)(F)F)c3)n2)c1 [I-117] | < 10 nM | > 1000 nM |
| O=[N+]([O-])c1cc(-c2csc(Nc3cccc(C(F)(F)F)c3)n2)c[n+]([O-])c1 [I-120] | < 10 nM | 100 to 1000 nM |
| [O-][n+]1cccc(-c2csc(Nc3cccc(C(F)(F)F)n3)n2)c1 [I-121] | < 10 nM | > 1000 nM |
| OCc1cccc(-c2csc(Nc3cccc(C(F)(F)F)c3)n2)c1 [I-125] | 10 to 100 nM | > 1000 nM |
| O=c1cc(-c2nsc(Nc3cccc(C(F)(F)F)c3)n2)cc[nH]1 [I-128] | < 10 nM | > 1000 nM |
| O=c1cccc(-c2csc(Nc3cccc(C(F)(F)F)c3)n2)[nH]1 [I-130] | < 10 nM | < 10 nM |
| CSc1cccc(Nc2nc(-c3cccc([N+](=O)[O-])c3)cs2)c1 [I-136] | < 10 nM | 100 to 1000 nM |
| COc1cc(-n2cnc(Nc3cccc(C(F)(F)F)c3)n2)ccn1 [I-143] | 100 to 1000 nM | > 1000 nM |
| O=c1cc(-n2cnc(Nc3cccc(C(F)(F)F)c3)n2)cc[nH]1 [I-144] | 10 to 100 nM | > 1000 nM |
| N#Cc1cccc(-n2cnc(Nc3cccc(C(F)(F)F)c3)n2)c1 [I-145] | < 10 nM | > 1000 nM |
| C[N+](C)(C)CCNC(=O)N(c1cccc(C(F)(F)F)c1)c1nc(-c2cc[nH]c(=O)c2)cs1 [I-146] | < 10 nM | > 1000 nM |
| NC(=O)c1cccc(Nc2nc(-c3ccc[n+]([O-])c3)cs2)c1 [I-147] | 100 to 1000 nM | > 1000 nM |
| C[N+](C)(CCNC(=O)N(c1cccc(C(F)(F)F)c1)c1nc(-c2cccc([N+](=O)[O-])c2)cs1)CCNC(=O)N(c1cccc(C(F)(F)F)c1)c1nc(-c2cccc([N+](=O)[O-])c2)cs1 [I-148] | 10 to 100 nM | 100 to 1000 nM |
| C[N+](C)(C)CCOc1cc(-c2csc(Nc3cccc(C(F)(F)F)c3)n2)ccn1 [I-149] | 100 to 1000 nM | 100 to 1000 nM |
| N#Cc1cccc(-c2nc(Nc3cccc(C(F)(F)F)c3)no2)c1 [I-152] | > 1000 nM | > 1000 nM |
| CN(C)c1cc(-c2csc(Nc3cccc(C(F)(F)F)c3)n2)ccn1 [I-153] | 10 to 100 nM | > 1000 nM |
| CNc1cc(-c2csc(Nc3cccc(C(F)(F)F)c3)n2)ccn1 [I-154] | < 10 nM | 10 to 100 nM |
